ChEMBL document CHEMBL4219261, “Discovery of 3(S)-thiomethyl pyrrolidine ERK inhibitors for oncology” (Bioorg Med Chem Lett, 2018)

Experiments:
Cytochrome P450 3A4 [1] = molecular target: T1, Cytochrome P450 3A4 (Homo sapiens, UniProt P08684); test: Inhibition of CYP3A4 (unknown origin) under co-incubation condition; type: ADME
Cytochrome P450 3A4 [2] = molecular target: T1, Cytochrome P450 3A4; test: Inhibition of CYP3A4 (unknown origin) under pre-incubation condition; type: ADME
[3] = AUC in rat at 10 mg/kg; type: ADME, organism-based; conditions: in vivo
HT-29 [4] = test: Induction of apoptosis in human HT-29 cells harboring BRAF/KRAS mutant by caspase activation assay; type: functional, cell-based
HT-29 [5] = test: Antiproliferative activity against human HT-29 cells harboring BRAF/KRAS mutant; type: functional, cell-based
hERG (KCNH2) = hERG (KCNH2) (Homo sapiens, UniProt Q12809); test: Inhibition of human ERG at […] by Rb efflux assay
[6] = AUC in dog at 10 mg/kg, po; type: ADME, organism-based, Canis lupus familiaris; conditions: in vivo
[7] = molecular target: Mitogen-activated protein kinase 1 (Homo sapiens, UniProt P28482); test: Inhibition of ERK2 (unknown origin)
[8] = Clearance in dog hepatocytes assessed per million cells; type: ADME, cell-based, Canis lupus familiaris, Hepatocyte
[9] = Clearance in human hepatocytes assessed per million cells; type: ADME, cell-based, Hepatocyte
[10] = Drug level in rat cryopreserved hepatocytes treated with (R)-N-(3-(4-fluorophenyl)-1H-indazol-5-yl)-1-(2-oxo-2-(4-(4-(pyrimidin-2-yl)phenyl)piperazin-1-yl)ethyl)pyrrolidine-3-carboxamide at 10 uM up to 4 hrs by LC-ESI/MS/MS analysis; type: ADME, cell-based, Hepatocyte
[11] = Drug level in human cryopreserved hepatocytes treated with [3H]8 at 1 uCi/ml up to 4 hrs by LC-ESI/MS/MS analysis; type: ADME, cell-based, Hepatocyte
[12] = Drug metabolism in human cryopreserved hepatocytes assessed as N-(3-(4-fluorophenyl)-1H-indazol-5-yl)acetamide formation at 1 uCi/ml up to 4 hrs by LC-ESI/MS/MS analysis; type: ADME, cell-based, Hepatocyte
[13] = Drug metabolism in rat bile assessed as amide hydrolysis followed by glucuronidation level 10 mg/kg, iv measured during 8 to 24 hrs post dose by LC-ESI/MS/MS analysis; type: ADME, organism-based; conditions: in vivo
[14] = Drug metabolism in rat bile assessed as amide hydrolysis followed by glucuronidation level 10 mg/kg, iv measured during 0 to 8 hrs post dose by LC-ESI/MS/MS analysis; type: ADME, organism-based; conditions: in vivo
[15] = Drug metabolism in rat urine assessed as amide hydrolysis followed by glucuronidation level 10 mg/kg, iv measured during 0 to 8 hrs post dose by LC-ESI/MS/MS analysis; type: ADME, organism-based; conditions: in vivo
[16] = Drug metabolism in rat cryopreserved hepatocytes assessed as N-(3-(4-fluorophenyl)-1H-indazol-5-yl)acetamide formation at 10 uM up to 4 hrs by LC-ESI/MS/MS analysis; type: ADME, cell-based, Hepatocyte
[17] = Drug metabolism in human cryopreserved hepatocytes assessed as (R)-1-(2-oxo-2-(4-(4-(pyrimidin-2-yl)phenyl)piperazin-1-yl)ethyl)pyrrolidine-3-carboxylic acid formation at 1 uCi/ml up to 4 hrs by LC-ESI/MS/MS analysis; type: ADME, cell-based, Hepatocyte
[18] = Drug metabolism in rat cryopreserved hepatocytes assessed as (R)-1-(2-oxo-2-(4-(4-(pyrimidin-2-yl)phenyl)piperazin-1-yl)ethyl)pyrrolidine-3-carboxylic acid formation at 10 uM up to 4 hrs by LC-ESI/MS/MS analysis; type: ADME, cell-based, Hepatocyte
[19] = Drug metabolism in rat urine assessed as amide hydrolysis followed by glucuronidation level 10 mg/kg, iv measured during 8 to 24 hrs post dose by LC-ESI/MS/MS analysis; type: ADME, organism-based; conditions: in vivo
[20] = Half life in rat at 3 mg/kg, iv or 10 mg/kg, po; type: ADME, organism-based; conditions: in vivo
[21] = Total plasma clearance in dog at 2 mg/kg, iv or 2 mg/kg dosed via portal vein infusion or 10 mg/kg, po; type: ADME, organism-based, Canis lupus familiaris
[22] = MRT in dog at 2 mg/kg, iv or 2 mg/kg dosed via portal vein infusion or 10 mg/kg, po; type: ADME, organism-based, Canis lupus familiaris; conditions: in vivo
[23] = Apparent permeability in human Caco2 cells […]; type: ADME, cell-based; conditions: Caco-2
[24] = Half life in dog at 2 mg/kg, iv or 2 mg/kg dosed via portal vein infusion or 10 mg/kg, po; type: ADME, organism-based, Canis lupus familiaris; conditions: in vivo
[25] = Oral bioavailability in dog at 10 mg/kg; type: ADME, organism-based, Canis lupus familiaris; conditions: in vivo
[26] = Oral bioavailability in rat at or 10 mg/kg; type: ADME, organism-based; conditions: in vivo
[27] = MRT in rat at 3 mg/kg, iv or 10 mg/kg, po; type: ADME, organism-based; conditions: in vivo
[28] = Total plasma clearance in rat at 3 mg/kg, iv or 10 mg/kg, po; type: ADME, organism-based
[29] = Oral bioavailability in rat at 10 mg/kg; type: ADME, organism-based; conditions: in vivo

Chain of Mitogen-activated protein kinase 1 (P28482 whole entry): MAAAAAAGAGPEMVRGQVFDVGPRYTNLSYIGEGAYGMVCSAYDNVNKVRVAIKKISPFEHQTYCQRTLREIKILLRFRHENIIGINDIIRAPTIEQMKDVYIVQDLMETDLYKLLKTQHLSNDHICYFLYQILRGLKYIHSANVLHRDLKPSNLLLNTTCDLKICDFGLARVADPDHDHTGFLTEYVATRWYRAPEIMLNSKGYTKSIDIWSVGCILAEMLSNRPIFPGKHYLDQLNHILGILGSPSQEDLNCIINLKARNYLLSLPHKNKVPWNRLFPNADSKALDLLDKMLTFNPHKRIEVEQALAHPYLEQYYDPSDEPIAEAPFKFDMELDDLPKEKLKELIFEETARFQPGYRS
T1 sequence (P08684 whole entry): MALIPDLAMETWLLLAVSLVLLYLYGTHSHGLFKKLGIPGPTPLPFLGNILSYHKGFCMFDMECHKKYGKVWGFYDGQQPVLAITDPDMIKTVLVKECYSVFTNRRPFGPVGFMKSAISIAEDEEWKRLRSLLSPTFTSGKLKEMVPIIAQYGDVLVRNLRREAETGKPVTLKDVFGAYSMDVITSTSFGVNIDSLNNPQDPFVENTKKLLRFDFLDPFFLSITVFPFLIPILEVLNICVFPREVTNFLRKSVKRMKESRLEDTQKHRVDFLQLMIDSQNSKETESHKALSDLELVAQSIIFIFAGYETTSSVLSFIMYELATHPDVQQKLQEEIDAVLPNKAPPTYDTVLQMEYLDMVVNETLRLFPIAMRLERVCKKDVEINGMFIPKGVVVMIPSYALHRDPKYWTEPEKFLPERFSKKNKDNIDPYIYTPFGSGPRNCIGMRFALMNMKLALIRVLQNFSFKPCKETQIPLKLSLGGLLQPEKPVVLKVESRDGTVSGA
Chain of hERG (KCNH2) (Q12809 whole entry): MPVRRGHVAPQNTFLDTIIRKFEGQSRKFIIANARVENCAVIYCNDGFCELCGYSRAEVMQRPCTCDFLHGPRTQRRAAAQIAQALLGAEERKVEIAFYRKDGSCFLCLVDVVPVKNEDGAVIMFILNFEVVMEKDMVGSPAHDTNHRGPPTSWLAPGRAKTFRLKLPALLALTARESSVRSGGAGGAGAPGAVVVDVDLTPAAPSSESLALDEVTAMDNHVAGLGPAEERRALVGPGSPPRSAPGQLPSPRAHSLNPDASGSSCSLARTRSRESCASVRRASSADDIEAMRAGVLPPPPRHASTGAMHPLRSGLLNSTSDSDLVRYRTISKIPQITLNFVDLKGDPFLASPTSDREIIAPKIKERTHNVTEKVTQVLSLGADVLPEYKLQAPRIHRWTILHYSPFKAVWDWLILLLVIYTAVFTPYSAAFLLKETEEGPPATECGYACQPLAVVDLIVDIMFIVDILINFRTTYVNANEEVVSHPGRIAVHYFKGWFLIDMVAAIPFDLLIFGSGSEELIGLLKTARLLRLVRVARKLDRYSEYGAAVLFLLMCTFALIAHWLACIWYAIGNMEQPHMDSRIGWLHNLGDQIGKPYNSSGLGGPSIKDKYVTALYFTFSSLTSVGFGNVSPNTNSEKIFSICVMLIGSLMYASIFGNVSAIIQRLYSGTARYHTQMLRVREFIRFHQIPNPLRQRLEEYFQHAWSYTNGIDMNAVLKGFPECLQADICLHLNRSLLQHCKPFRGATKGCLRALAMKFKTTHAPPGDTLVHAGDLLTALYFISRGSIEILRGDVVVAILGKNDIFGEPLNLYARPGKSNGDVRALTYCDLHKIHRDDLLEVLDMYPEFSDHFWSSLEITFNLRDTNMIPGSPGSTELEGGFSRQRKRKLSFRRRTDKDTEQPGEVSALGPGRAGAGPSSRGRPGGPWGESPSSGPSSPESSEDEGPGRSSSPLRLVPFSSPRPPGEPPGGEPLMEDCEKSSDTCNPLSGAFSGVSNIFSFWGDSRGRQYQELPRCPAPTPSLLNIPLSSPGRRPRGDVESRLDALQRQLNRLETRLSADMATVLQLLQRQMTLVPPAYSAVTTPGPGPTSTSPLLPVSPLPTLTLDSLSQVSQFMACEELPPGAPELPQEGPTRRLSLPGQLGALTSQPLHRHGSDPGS

CO[C@@]1(C(=O)Nc2ccc3[nH]nc(-c4ccc(F)cc4)c3c2)CCN(CC(=O)N2CC=C(c3ccc(-c4ncccn4)cc3)CC2)C1
IC50 (Cytochrome P450 3A4 [1]): 31000 nM
IC50 (Cytochrome P450 3A4 [2]): 2200 nM
AUC [3]: 1.88 µM·h
IC50 (HT-29 [4]): 79 nM
IC50 (HT-29 [5]): 88 nM
inhibition at […] (hERG (KCNH2)): 56%
AUC [6]: 4.53 µM·h
IC50 [7]: 4.8 nM
CLH [8]: 36 µL/min/1e6 cells
CLH [9]: 33 µL/min/1e6 cells

O=C(Nc1ccc2[nH]nc(-c3ccc(F)cc3)c2c1)[C@@H]1CCN(CC(=O)N2CC=C(c3ccc(-c4ncccn4)cc3)CC2)C1
IC50 [7]: 15.5 nM

CO[C@@]1(C(=O)Nc2ccc3[nH]nc(-c4ccc(F)cc4)c3c2)CCN(CC(=O)N2CCN(c3ccc(-c4ncccn4)cc3)CC2)C1
IC50 [7]: 2.1 nM

O=C(CN1CCCC(c2cn(-c3ccc4[nH]nc(-c5ccc(F)cc5)c4c3)nn2)C1)N1CC=C(c2ccc(-c3ncccn3)cc2)CC1 (stereo not drawn)
IC50 [7]: > 1000 nM

CN(C)C1(C(=O)Nc2ccc3[nH]nc(-c4ccc(F)cc4)c3c2)CCN(CC(=O)N2CC=C(c3ccc(-c4ncccn4)cc3)CC2)C1 (stereo not drawn)
IC50 [7]: 21 nM

O=C(CN1CC[C@@](CO)(C(=O)Nc2ccc3[nH]nc(-c4ccc(F)cc4)c3c2)C1)N1CC=C(c2ccc(-c3ncccn3)cc2)CC1
IC50 [7]: 14 nM

CC(=O)Nc1ccc2[nH]nc(-c3ccc(F)cc3)c2c1
Drug metabolism [10]: Metabolite_Detected
Drug metabolism [11]: Metabolite_Detected

O=C(CN1CC[C@@H](CNc2ccc3[nH]nc(-c4ccc(F)cc4)c3c2)C1)N1CCN(c2ccc(-c3ncccn3)cc2)CC1
IC50 [7]: 960 nM

O=C(Nc1ccc2[nH]nc(-c3ccc(F)cc3)c2c1)[C@@H]1CCN(CC(=O)N2CCN(c3ccc(-c4ncccn4)cc3)CC2)C1
IC50 [7]: 5.5 nM

COC[C@@]1(C(=O)Nc2ccc3[nH]nc(-c4ccc(F)cc4)c3c2)CCN(CC(=O)N2CCN(c3ccc(-c4ncccn4)cc3)CC2)C1
IC50 [7]: 25 nM

O=C(CN1CCC(CF)(C(=O)Nc2ccc3[nH]nc(-c4ccc(F)cc4)c3c2)C1)N1CCN(c2ccc(-c3ncccn3)cc2)CC1 (stereo not drawn)
IC50 [7]: 5.8 nM

C[C@@]1(C(=O)Nc2ccc3[nH]nc(-c4ccc(F)cc4)c3c2)CCN(CC(=O)N2CCN(c3ccc(-c4ncccn4)cc3)CC2)C1
IC50 [7]: 24 nM

CS[C@@]1(C(=O)Nc2ccc3[nH]nc(-c4ccc(F)cc4)c3c2)CCN(CC(=O)N2CCN(c3ccc(-c4ncccn4)cc3)CC2)C1
IC50 [7]: 5.6 nM

CC(C)O[C@@]1(C(=O)Nc2ccc3[nH]nc(-c4ccc(F)cc4)c3c2)CCN(CC(=O)N2CCN(c3ccc(-c4ncccn4)cc3)CC2)C1
IC50 [7]: 90 nM

[3H]c1cc(N2CCN(C(=O)CN3CC[C@@H](C(=O)Nc4ccc5[nH]nc(-c6c([3H])cc(F)cc6[3H])c5c4)C3)CC2)cc([3H])c1-c1ncccn1
Drug metabolism [12]: Metabolite_Detected
Drug metabolism [13]: Metabolite_Detected
Drug metabolism [14]: Metabolite_Detected
Drug metabolism [15]: Metabolite_Detected
Drug metabolism [16]: Metabolite_Detected
Drug metabolism [17]: Metabolite_Detected
Drug metabolism [18]: Metabolite_Detected
Drug metabolism [19]: Metabolite_Detected

O=C(CN1CCC(Oc2ccccc2)(C(=O)Nc2ccc3[nH]nc(-c4ccc(F)cc4)c3c2)C1)N1CCN(c2ccc(-c3ncccn3)cc2)CC1 (stereo not drawn)
IC50 [7]: > 3000 nM

CS[C@@]1(C(=O)Nc2ccc3[nH]nc(-c4ccc(F)cc4)c3c2)CCN(CC(=O)N2CC=C(c3ccc(-c4ncccn4)cc3)CC2)C1
half-life [20]: 2.5 h
IC50 (Cytochrome P450 3A4 [1]): > 30000 nM
clearance [21]: 7.6 mL/min/kg
IC50 (Cytochrome P450 3A4 [2]): 2000 nM
MRT [22]: 5.1 h
Papp [23]: 60 ×10⁻⁶ cm/s
IC50 (HT-29 [4]): 80 nM
half-life [24]: 2 h
bioavailability [25]: 75%
bioavailability [26]: 70%
inhibition at […] (hERG (KCNH2)): 8%
AUC [6]: 17.2 µM·h
MRT [27]: 2.5 h
IC50 [7]: 7 nM
clearance [28]: 8.4 mL/min/kg
CLH [8]: 18 µL/min/1e6 cells
CLH [9]: 7 µL/min/1e6 cells

CS[C@]1(C(=O)Nc2ccc3[nH]nc(-c4ccc(F)cc4)c3c2)CCN(CC(=O)N2CC=C(c3ccc(-c4ncccn4)cc3)CC2)C1
IC50 [7]: > 3000 nM

O=C(O)[C@@H]1CCN(CC(=O)N2CCN(c3ccc(-c4ncccn4)cc3)CC2)C1
Drug metabolism [10]: Metabolite_Detected
Drug metabolism [11]: Metabolite_Detected

CC(=O)N(C[C@@H]1CCN(CC(=O)N2CCN(c3ccc(-c4ncccn4)cc3)CC2)C1)c1ccc2[nH]nc(-c3ccc(F)cc3)c2c1
IC50 [7]: 574 nM

O=C(Nc1ccc2[nH]nc(-c3ccc(F)cc3)c2c1)C1CN(CC(=O)N2CC=C(c3ccc(-c4ncccn4)cc3)CC2)CCS1 (stereo not drawn)
IC50 [7]: 1310 nM

CCO[C@@]1(C(=O)Nc2ccc3[nH]nc(-c4ccc(F)cc4)c3c2)CCN(CC(=O)N2CCN(c3ccc(-c4ncccn4)cc3)CC2)C1
IC50 [7]: 9.7 nM

CC[C@@]1(C(=O)Nc2ccc3[nH]nc(-c4ccc(F)cc4)c3c2)CCN(CC(=O)N2CC=C(c3ccc(-c4ncccn4)cc3)CC2)C1
IC50 [7]: 115 nM

O=C(Nc1ccc2[nH]nc(-c3ccc(F)cc3)c2c1)C1CN(CC(=O)N2CC=C(c3ccc(-c4ncccn4)cc3)CC2)CCO1 (stereo not drawn)
IC50 [7]: 119 nM

O=C(Nc1ccc2[nH]nc(-c3ccncc3)c2c1)[C@@H]1CCN(CC(=O)N2CCN(c3ccc(-c4ncccn4)cc3)CC2)C1
IC50 (Cytochrome P450 3A4 [1]): 7800 nM
bioavailability [29]: 0%
IC50 (Cytochrome P450 3A4 [2]): 5700 nM
Papp [23]: 4 ×10⁻⁶ cm/s
IC50 (HT-29 [4]): 96 nM
IC50 (HT-29 [5]): 59 nM
bioavailability [26]: 0%
inhibition at […] (hERG (KCNH2)): 12%

COC[C@@]1(C(=O)Nc2ccc3[nH]nc(-c4ccc(F)cc4)c3c2)CCN(CC(=O)N2CC=C(c3ccc(-c4ncccn4)cc3)CC2)C1
IC50 [7]: 41 nM

CS(=O)(=O)[C@@]1(C(=O)Nc2ccc3[nH]nc(-c4ccc(F)cc4)c3c2)CCN(CC(=O)N2CC=C(c3ccc(-c4ncccn4)cc3)CC2)C1
IC50 [7]: 12 nM
